Laboratory results published in ChEMBL document CHEMBL4219036, “Design and multi-step synthesis of chalcone-polyamine conjugates as potent antiproliferative agents” (Bioorg Med Chem Lett, 2017).

Legend:
[1] = tested on: HT-29; assay: Antiproliferative activity against human HT-29 cells after 48 hrs by MTT assay; type: functional, cell-based; conditions: HT-29, 48 h
[2] = tested on: DU-145; assay: Antiproliferative activity against human DU145 cells after 48 hrs by MTT assay; type: functional, cell-based; conditions: DU-145, 48 h
[3] = tested on: HCT-116; assay: Antiproliferative activity against human HCT116 cells after 48 hrs by MTT assay; type: functional, cell-based; conditions: HCT-116, 48 h
[4] = tested on: PC-3; assay: Antiproliferative activity against human PC3 cells after 48 hrs by MTT assay; type: functional, cell-based; conditions: PC-3, 48 h
[5] = 1-octanol/water partition coefficient, log P of the compound at 300 uM by UV-Vis spectrophotometric analysis; type: physicochemical

Row | Compound | IC50 [1] [µM] | IC50 [2] [µM] | IC50 [3] [µM] | IC50 [4] [µM] | logP at 300 µM [5]
1 | COc1ccc(/C=C/C(=O)c2cc(OC)c(OC)c(OC)c2)cc1OCCCC(=O)NCCCCN(CCCN)CCCCN | 74.7 | 82.3 | 73.6 | 60.6 | –
2 | COc1cc(C(=O)/C=C/c2ccc(OCCCC(=O)NCCCCNCCCN)cc2)cc(OC)c1OC | > 100 | 54.8 | 20 | 79.3 | –
3 | COc1cc(C(=O)/C=C/c2ccc(OCCCC(=O)NCCCNCCCCNCCN)cc2)cc(OC)c1OC | 98 | 35.4 | 33.8 | 34 | -1.98
4 | COc1ccc(/C=C/C(=O)c2cc(OC)c(OC)c(OC)c2)cc1OCCCC(=O)NCCCNCCCCNCCN | > 100 | 28.5 | 55.8 | 31.8 | -1.57
5 | COc1cc(C(=O)/C=C/c2ccc(OCCCC(=O)NCCCNCCCCN)cc2)cc(OC)c1OC | > 100 | > 100 | > 100 | > 100 | -1.43
6 | COc1ccc(/C=C/C(=O)c2cc(OC)c(OC)c(OC)c2)cc1OCCCC(=O)NCCCNCCCCN | > 100 | > 100 | > 100 | 81 | –
7 | COc1cc(C(=O)/C=C/c2ccc(OCCCC(=O)NCCCCN(CCCN)CCCCN)cc2)cc(OC)c1OC | 87.2 | 86.8 | 29.2 | 55.4 | –
8 | COc1ccc(/C=C/C(=O)c2cc(OC)c(OC)c(OC)c2)cc1OCCCC(=O)NCCCCNCCCN | > 100 | 99.3 | 38 | 51 | -1.28
9 | COc1ccc(/C=C/C(=O)c2cc(OC)c(OC)c(OC)c2)cc1OCCCC(=O)NCCCCN(CCCN)CCCCNCCCN | 89.1 | 84.9 | 29.5 | 48.1 | –
10 | COc1cc(C(=O)/C=C/c2ccc(OCCCC(=O)NCCCCN(CCCN)CCCCNCCCN)cc2)cc(OC)c1OC | 91.7 | 92.5 | 75.4 | 81.6 | –
11 | COc1ccc(/C=C/C(=O)c2cc(OC)c(OC)c(OC)c2)cc1O | 23.1 | 6.3 | 0.85 | 0.09 | 2.99
12 | COc1ccc(/C=C/C(=O)c2cc(OC)c(OC)c(OC)c2)cc1 | 7.4 | 13.8 | 10.7 | 7.8 | 3.1
